Results on one molecule are retold here after patent US5304474A, “Hydrophobic peptide esters and amides” (Board of Regents, The University of Texas System, priority 1991, dated 1994).

The subject of series [1] is PBM. Description: 51Cr release toxicity assay. Particulars: 15 minutes exposure, 4 hour release (FIG. 7). The series is classed as cell-based, human. Here is the method: (§1) In some experiments, toxicity of Leu-Leu-OMe for a variety of cell populations was assessed by ^51 Cr release In assays where cells obtained from suspension culture were to be used, cells were labeled with Na2^51 CrO4 (ICN, Plainview, N.Y.) for 60-90 minutes at 37° C. and then washed three times. Cells were then suspended in PBS (2.5×10^6 /ml) and incubated in microtiter plates, 50 microL/well with indicated concentrations of Leu-Leu-OMe for 15 minutes at room temperature. […] Following ^51 Cr labeling, wells were thoroughly washed and varying concentrations of Leu-Leu-OMe added in 50 microL PBS and the plates incubated for 15 minutes at room temperature.
(§2) Following such initial serum-free incubations, 200 microL/well of medium RPMI containing 10% FBS were added and the plates incubated for another 4 hours prior to removal of 100 microliters of supernatant. Radioactivity in the supernatant was measured in an auto-gamma scintillation spectrometer (Packard Instrument Co., Downers Grove, Ill.). The percent specific release was calculated from the formula: [formula] in which maximal release refers to cpm obtained in wells containing 50% lysing agent (American Scientific Products, McGraw Park, Ill.) and spontaneous release refers to cpm released by cells incubated in control medium in the absence of Leu-Leu-OMe or the lysing agent. Only experiments in which spontaneous release was 25% were used for subsequent data interpretation.
(§3) In developing the data expressed in FIG. 7, cells (2.5×10^6 /ml) were exposed to the indicated concentrations of Leu-Leu-OMe for 15 minutes at room temperature, then specific ^51 Cr release during the next four hours was assessed. Data for the EBV transformed lines JM.6, SDL-G2, D8-219, and SM.4, respectively, are shown in order from top to bottom.

Series [2] deals with nylon wool non-adherent lymphocytes (NAC). Description: 51Cr release toxicity assay. The series is classed as cell-based, human. Particulars: 25 to 50 micromolar. Here is the method:
as §1, §2, §3

The test system of series [3] is MP-enriched adherent cells (AC). The series is described as follows: 51Cr release toxicity assay. The format is cell-based, human. Here is the method:
as §1
as §2, with “agent.” for “agent. Only experiments in which spontaneous release was 25% were used for subsequent data interpretation.”
(§4) In developing the data expressed in FIG. 7, cells (2.5×10^6 /ml) were exposed to the indicated concentrations of Leu-Leu-OMe for 15 minutes at room temperature, then specific ^51 Cr release during the next four hours was assessed.

Series [4] relates to T4 enriched T cells. Description: 51Cr release toxicity assay. The series is classed as cell-based, human. The procedure: as §1
as §2, with “agent.” for “agent. Only experiments in which spontaneous release was 25% were used for subsequent data interpretation.”
as §4

Series [5] deals with T8-enriched population. The series is described as follows: 51Cr release toxicity assay. The series is classed as cell-based, human. The procedure:
as §1
as §2, with “agent.” for “agent. Only experiments in which spontaneous release was 25% were used for subsequent data interpretation.”
as §4

Series [6] relates to human erythrocytes (RBC). The series is described as follows: 51Cr release from RBC incubated with peptide ester alone. The format is cell-based. Particulars: for ^51 Cr Release from RBC: Nil 410 + 12. Here is the method: The following experiments were carried out to determine whether DPPI could generate a lytic product from Leu-Leu-OMe. In the experiment detailed in FIG. 12, ^51 Cr-labeled human erythrocytes (RBC) were incubated with varying concentrations of Leu-Leu-OMe alone or in the presence of purified bovine DPPI.

Series [7] concerns B6 spleen cells (NK, allospecific cytotoxic T cells). Description: Cytotoxic function of B6 spleen cells after incubation. The series is classed as cell-based, murine.
The subject of series [8] is epidermal carcinoma line, HEp-2. Description: 51Cr release toxicity assay.

SMILES strings stand for the structures. Where only a bound is given, the exact number is not on record here.

As to `COC(=O)[C@H](CC(C)C)NC(=O)[C@@H](N)CC(C)C` [Leu-Leu-OMe, L-leucyl-L-leucine methyl ester], in series [1], the “concentration for maximal achievable 51Cr release” value is on record as “greater than 100 micromolar”. For the same molecule, the “concentration giving detectable 51Cr release” value in series [1] was in the range of 25 to 50 µM. Besides, the 51Cr release result in series [2] was “small but significant ^51 Cr release”; in series [3] (25-50 micromolar), “minimal ^51 Cr release”; in series [4] (1000 micromolar), “caused minimal ^51 Cr release”; in series [5] (N-SRBC positive cells depleted of OKT4 positive cells), “produced high levels of ^51 Cr release”; in series [8], “no significant Leu-Leu-OMe induced ^51 Cr release”. For the same molecule, the entries for the “Leu--Leu--OMe Sensitivity (LD50)” value in series [3] (M--phi), in series [4] (T4 Cells) and in series [5] (T-8 Cells) were 75 micro-M, over 500 micro-M and 250 micro-M, respectively. For the same molecule, the “^51 Cr Release from RBC” value in series [6] (100 micro-M) is listed as 400 + 27; in series [6] (500 micro-M), 482 + 57; in series [6] (2500 micro-M) it was 482 + 121. Further, in series [6] (no DPPI), the “damage to RBC by compound alone, in words” value was “results in no damage to RBC”. The “NK function of B6 spleen cells” value in series [7] (100 micro-M) is “complete loss of NK function”. For the same molecule, the “generation of allospecific cytotoxic T cells” value in series [7] (100 micro-M) was “only partial reduction of the generation of allospecific cytotoxic T cells”. The “cells with cytotoxic potential that remain” value in series [7] (single treatment with 250 micro-M) was under 5%. Also, the subsequent proliferative capacity entry in series [8] (500 micromolar) is on record as “had no discernible effect on subsequent proliferative capacity”.
